Experimental data from patent US10632147B2, “Methods and compositions for treating inflammatory disorders” (priority 2007, dated 2020).

Details: in vivo

In the case of NCc1ccc(S(N)(=O)=O)cc1 [Sulfamylon], the “safety profile (adverse effects)” value is reported as “absence of adverse effects”.
